Legend:
CYP2B6 (human) = target: T1, CYP2B6 (human) (Homo sapiens, UniProt P20813); assay: Metabolism by isolated human CYP2B6; format: in vitro ADME; details: petasins 20 μM, 60 min
T1 construct: purchased BD Gentest (Switzerland); host or cells: baculovirus expression system
T1 sequence (P20813 1-491): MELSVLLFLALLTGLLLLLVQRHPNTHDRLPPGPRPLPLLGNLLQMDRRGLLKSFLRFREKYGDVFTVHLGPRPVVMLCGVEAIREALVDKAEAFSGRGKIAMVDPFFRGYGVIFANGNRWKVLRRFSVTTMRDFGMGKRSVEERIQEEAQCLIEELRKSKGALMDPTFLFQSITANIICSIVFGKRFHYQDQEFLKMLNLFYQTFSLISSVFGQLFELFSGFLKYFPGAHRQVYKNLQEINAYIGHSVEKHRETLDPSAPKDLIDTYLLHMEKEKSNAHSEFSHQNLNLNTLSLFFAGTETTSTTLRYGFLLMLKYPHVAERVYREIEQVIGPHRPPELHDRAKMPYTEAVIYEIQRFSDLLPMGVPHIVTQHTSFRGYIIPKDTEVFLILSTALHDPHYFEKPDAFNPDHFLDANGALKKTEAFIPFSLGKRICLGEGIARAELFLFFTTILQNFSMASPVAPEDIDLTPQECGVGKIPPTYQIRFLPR
Excerpt: (§1) The metabolism of petasin, isopetasin, and neopetasin was investigated using three different S9 fractions originating from three different species (isolated from rat, dog, and human liver homogenates containing cytochrome P450 isoforms) and isolated cytochromes of two different species (human and rat; rat analogues of the respective human cytochromes were used). For the expression of the different cytochromes, a baculovirus expression system was used according to supplier's manual. The S9 fractions or respectively single P450 cytochromes were used to mimic the liver metabolism by in vitro incubation.
(§2) The assay was carried out in triplicate in 1.5 ml glass vials with a final concentration of 20 μM of petasin, isopetasin, and neopetasin. The incubation was performed in a 37°C warm water bath. S9 fractions were thawed slowly on ice. Four different approaches were pursued by testing: (a) petasin, neopetasin, and isopetasin before (0 min) and after 60 min incubations with S9 fraction; (b) petasin, neopetasin, and isopetasin without S9 fraction after 60 min incubation; (c) vehicle as negative controls; and (d) cofactors of S9 fraction after 60‐min incubation.
(§3) A mixture of NADPH regeneration systems A (20‐fold) and B (100‐fold), phosphate buffer, and H2O was added, preincubated at 37°C, and shaken gently for 5 min. Afterwards, the recommended amount between 10 and 40 pmol/ml of enzyme or enzyme mixture was added according to manufacturer's instruction and incubated for further 60 min at 37°C and gently shaken. Afterwards, the reactions were stopped by addition of acetonitrile (400 μl). For the control sample, acetonitrile was added at 0 min incubation. The samples were centrifuged for 3 min at 10,000 × g. The supernatant was transferred to high‐performance liquid chromatography vials and analyzed by ultra‐performance liquid chromatography mass spectrometry (UPLC/MS). The UPLC analysis was performed with an UPLC Acquity H Class from Waters (Waters Corporation, Switzerland) including a quaternary high‐pressure gradient pump, an automatic sample injector, and a column thermostat. […]

CYP2C11 (rat) = target: T2, CYP2C11 (rat) (Rattus norvegicus, UniProt P08683); assay: Metabolism by isolated rat CYP2C11; format: in vitro ADME; details: petasins 20 μM, 60 min
T2 construct: purchased BD Gentest (Switzerland); host or cells: baculovirus expression system
T2 sequence (P08683 1-500): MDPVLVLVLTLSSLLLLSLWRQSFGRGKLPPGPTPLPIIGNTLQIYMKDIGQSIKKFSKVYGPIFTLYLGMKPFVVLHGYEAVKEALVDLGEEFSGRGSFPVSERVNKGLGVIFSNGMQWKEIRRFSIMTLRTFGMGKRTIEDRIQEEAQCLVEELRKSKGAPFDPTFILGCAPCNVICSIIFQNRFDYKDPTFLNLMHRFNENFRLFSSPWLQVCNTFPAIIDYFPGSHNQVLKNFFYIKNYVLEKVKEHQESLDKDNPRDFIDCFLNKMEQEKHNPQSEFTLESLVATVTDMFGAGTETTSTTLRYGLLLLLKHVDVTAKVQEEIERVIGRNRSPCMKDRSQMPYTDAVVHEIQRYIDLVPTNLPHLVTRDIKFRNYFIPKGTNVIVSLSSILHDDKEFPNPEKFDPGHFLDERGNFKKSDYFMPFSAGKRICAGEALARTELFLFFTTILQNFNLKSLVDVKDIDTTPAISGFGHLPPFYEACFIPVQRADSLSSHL
Excerpt: as §1, §2, §3

H-4-II-E cells = assay: WST-1 metabolic activity (cytotoxicity) in H-4-II-E cells; format: cell-based, rat (Rattus norvegicus); details: Rattus norvegicus, H4IIE, single constituents, 4 hr
Experimental: HepG2 and H‐4‐II‐E cells were differentiated for 24 hr. HepaRG cells were directly seeded in precoated 96‐well microtiter plates and were incubated in William's medium with general purpose supplements according to manufacturer's manual until adherence. All cells were treated with Ze 339 (up to 100 μg/ml) or petasin, isopetasin, neopetasin, petasol, isopetasol, petasin mixture, fatty acid mixture, and reconstituted extracts (up to 250 μM) for 4 hr.
In the three cell lines, cytotoxicity was defined as a decrease in metabolic activity of ≥20% in the WST‐1 assay. At the end of the experiment, 10 μl WST‐1 reagent was added to each well. Plates were then incubated for 2 hr to allow for the reduction of WST‐1 reagent. Absorbance was measured using a microplate absorbance reader (Infinite M 200, Tecan Trading Ltd., Switzerland) at 450 nm, reference wavelength of 620 nm. Due to some matrix effect, the lowest concentration (0.02 μg/ml for Ze 339 and 3.9 μM for single constituents and mixtures) of each substance tested was defined as 100% metabolic activity. Results were expressed as percentage of the control metabolic activity, and data were presented as mean values ± SEM (n = 3–6).
Concentration‐response analysis was done using the sigmoidal Hill equation: E(t) = E0 − Emax × C(t)^N/(IC50 ^N + C(t)^N), where E is the effect at time t, E0 the effect at baseline (time = 0), IC50 the concentration yielding 50% of the maximal effect (Emax), and N denotes the sigmoidicity coefficient (Origin 2017 Software). For statistical analysis, analysis of variance with Dunnett's multicomparison test was used to correct for multiplicity of testing (IBM SPSS Statistics software, version 25, IBM Corp., USA). The level of significance was ^* p < .05, ^** p < .01 and ^*** p < .001; NS = no significance.

[1] = Incubation without S9 fraction (solvent or cofactors only, negative controls); format: in vitro ADME; details: 20 μM, 60 min, data not shown; for metabolism with cofactors of S9 fraction only (negative control): cofactor only; for metabolism with solvent (negative control): solvent only
Experimental: as §2
A mixture of NADPH regeneration systems A (20‐fold) and B (100‐fold), phosphate buffer, and H2O was added, preincubated at 37°C, and shaken gently for 5 min. Afterwards, the recommended amount between 10 and 40 pmol/ml of enzyme or enzyme mixture was added according to manufacturer's instruction and incubated for further 60 min at 37°C and gently shaken. Afterwards, the reactions were stopped by addition of acetonitrile (400 μl). For the control sample, acetonitrile was added at 0 min incubation. The samples were centrifuged for 3 min at 10,000 × g. The supernatant was transferred to high‐performance liquid chromatography vials and analyzed by ultra‐performance liquid chromatography mass spectrometry (UPLC/MS). The UPLC analysis was performed with an UPLC Acquity H Class from Waters (Waters Corporation, Switzerland) including a quaternary high‐pressure gradient pump, an automatic sample injector, and a column thermostat. Chromatographic separation was achieved on an Acquity BEH C18, […], 50 × 2.1 mm column (Waters, Switzerland). The mobile phase consisted of 0.1% formic acid (A) and acetonitrile (B). The initial gradient condition was 10% (B) followed by a step to 90% (B) until 6.0 min. The column temperature was adjusted to 40°C. The flow rate was 0.5 ml/min and the injection volume 5 μl. The mass spectrometry was performed in positive electrospray mode using an ACQUITY QDa mass detector (Waters Corporation, Switzerland). The single ion recording was set to 317.2 Da.

SMILES	extent of metabolism by CYP2B6 (human) (CYP2B6 (human))	extent of metabolism by CYP2C11 (rat) (CYP2C11 (rat))	EC50 (H-4-II-E cells)	metabolism with cofactors of S9 fraction only (negative control) [1]	metabolism with solvent (negative control) [1]
C=C(C)[C@H]1C[C@@]2(C)C(=CC1=O)CC[C@@H](OC(=O)/C(C)=C\C)[C@@H]2C [neopetasin]	20%	74%	15.8 µM	< 1%	< 1%
C/C=C(/C)C(=O)O[C@@H]1CCC2=CC(=O)C(=C(C)C)C[C@]2(C)[C@H]1C [isopetasin]	13%	84%	110 µM	< 1%	< 1%
C=C(C)[C@@H]1C[C@@]2(C)C(=CC1=O)CC[C@@H](OC(=O)/C(C)=C\C)[C@@H]2C [petasin]	50%	55%	132 µM	10%	< 1%
